The test system of series [1] is CTGF. To be noted: fibroblasts exposed to TGF-β; cited from earlier work.
For series [2], the system named is CTGF. To be noted: infusion, scleroderma patients; cited from earlier work.
Series [3] has as its system neonatal rats. The settings on record: cited from earlier work.
Series [4] has as its system mice with intratracheal administration of LPS. In words: LPS-induced lung injury in mice (intratracheal LPS). The series is classed as in vivo. The settings on record: for lung injury after intratracheal LPS: 2% H2 and/or 20 ppm NO for 3 hours starting at 5 minutes or 3 hours after LPS; for pulmonary inflammation and cell apoptosis: H2 and/or NO treatment.
Series [5] has as its system NF-κB. In words: LPS-induced pulmonary NF-κB activation. The series is classed as in vivo, mice. The settings on record: H2 and/or NO treatment.
Series [6] has as its system polymicrobial sepsis. In words: Polymicrobial sepsis-induced lung injury. The series is classed as in vivo. To be noted: H2 and/or NO treatment. The text has this: However until applicants' discovery, there has not been a successful combination of hydrogen gas with breathing gas using the claimed apparatus and methods. Applicants have discovered that NO's effect as an antioxidant may be enhanced by eliminating highly reactive by-products of NO inhalation such as peroxynitrite, by adding H2 to inhaled NO gas.

Series [7] concerns rats. To be noted: inhaled; cited from earlier work.
The test system of series [8] is neonatal piglets. The settings on record: short-term inhaled exposure; cited from earlier work.
Series [9] deals with PMN (Neutrophil). The settings on record: cited from earlier work.
The target of series [10] is T1, TRPM2 (Mus musculus, UniProt Q91YD4).
T1 construct: endogenous in cells; host or cells: PMN (neutrophils), fMLP-stimulated; work retold from a cited abstract (J. Immunol. 2010, 184)
The settings on record: responses comparable to fMLP-stimulated TRPM2 KO PMN; cited from earlier work.

In series [11] the test system is Angiotensin II. The settings on record: cited from earlier work.
Series [12] deals with brain injury. The settings on record: inhaled, acute rat model; cited from earlier work.
The target of series [13] is T2, Nox4 (Homo sapiens, UniProt Q9NPH5).
T2 construct: endogenous in cells; host or cells: pulmonary vascular wall cells under hypoxia
T2 sequence (Q9NPH5 1-578): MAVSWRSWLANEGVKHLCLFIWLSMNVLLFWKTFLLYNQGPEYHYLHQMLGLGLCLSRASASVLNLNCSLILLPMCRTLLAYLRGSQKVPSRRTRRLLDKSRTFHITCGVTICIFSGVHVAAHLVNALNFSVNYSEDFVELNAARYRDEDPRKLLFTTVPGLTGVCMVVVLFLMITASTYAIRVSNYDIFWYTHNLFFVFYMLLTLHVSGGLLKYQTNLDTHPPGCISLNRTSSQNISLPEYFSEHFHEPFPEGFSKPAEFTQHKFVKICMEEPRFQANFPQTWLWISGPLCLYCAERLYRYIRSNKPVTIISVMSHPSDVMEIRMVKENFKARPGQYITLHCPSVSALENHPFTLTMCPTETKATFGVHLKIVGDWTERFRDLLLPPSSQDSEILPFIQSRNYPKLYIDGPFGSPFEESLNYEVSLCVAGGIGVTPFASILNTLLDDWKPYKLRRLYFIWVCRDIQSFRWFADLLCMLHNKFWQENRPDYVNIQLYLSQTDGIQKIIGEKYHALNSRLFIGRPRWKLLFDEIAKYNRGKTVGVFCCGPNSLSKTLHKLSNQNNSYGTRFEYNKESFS
T2 sequence (P13498 1-195 partner): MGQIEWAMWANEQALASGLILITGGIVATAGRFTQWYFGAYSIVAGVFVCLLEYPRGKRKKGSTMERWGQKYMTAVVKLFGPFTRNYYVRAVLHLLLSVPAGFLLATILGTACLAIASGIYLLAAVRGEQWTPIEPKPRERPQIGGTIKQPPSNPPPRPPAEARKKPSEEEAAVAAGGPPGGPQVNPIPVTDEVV
The settings on record: cited from earlier work.

T1 sequence (Q91YD4 whole entry): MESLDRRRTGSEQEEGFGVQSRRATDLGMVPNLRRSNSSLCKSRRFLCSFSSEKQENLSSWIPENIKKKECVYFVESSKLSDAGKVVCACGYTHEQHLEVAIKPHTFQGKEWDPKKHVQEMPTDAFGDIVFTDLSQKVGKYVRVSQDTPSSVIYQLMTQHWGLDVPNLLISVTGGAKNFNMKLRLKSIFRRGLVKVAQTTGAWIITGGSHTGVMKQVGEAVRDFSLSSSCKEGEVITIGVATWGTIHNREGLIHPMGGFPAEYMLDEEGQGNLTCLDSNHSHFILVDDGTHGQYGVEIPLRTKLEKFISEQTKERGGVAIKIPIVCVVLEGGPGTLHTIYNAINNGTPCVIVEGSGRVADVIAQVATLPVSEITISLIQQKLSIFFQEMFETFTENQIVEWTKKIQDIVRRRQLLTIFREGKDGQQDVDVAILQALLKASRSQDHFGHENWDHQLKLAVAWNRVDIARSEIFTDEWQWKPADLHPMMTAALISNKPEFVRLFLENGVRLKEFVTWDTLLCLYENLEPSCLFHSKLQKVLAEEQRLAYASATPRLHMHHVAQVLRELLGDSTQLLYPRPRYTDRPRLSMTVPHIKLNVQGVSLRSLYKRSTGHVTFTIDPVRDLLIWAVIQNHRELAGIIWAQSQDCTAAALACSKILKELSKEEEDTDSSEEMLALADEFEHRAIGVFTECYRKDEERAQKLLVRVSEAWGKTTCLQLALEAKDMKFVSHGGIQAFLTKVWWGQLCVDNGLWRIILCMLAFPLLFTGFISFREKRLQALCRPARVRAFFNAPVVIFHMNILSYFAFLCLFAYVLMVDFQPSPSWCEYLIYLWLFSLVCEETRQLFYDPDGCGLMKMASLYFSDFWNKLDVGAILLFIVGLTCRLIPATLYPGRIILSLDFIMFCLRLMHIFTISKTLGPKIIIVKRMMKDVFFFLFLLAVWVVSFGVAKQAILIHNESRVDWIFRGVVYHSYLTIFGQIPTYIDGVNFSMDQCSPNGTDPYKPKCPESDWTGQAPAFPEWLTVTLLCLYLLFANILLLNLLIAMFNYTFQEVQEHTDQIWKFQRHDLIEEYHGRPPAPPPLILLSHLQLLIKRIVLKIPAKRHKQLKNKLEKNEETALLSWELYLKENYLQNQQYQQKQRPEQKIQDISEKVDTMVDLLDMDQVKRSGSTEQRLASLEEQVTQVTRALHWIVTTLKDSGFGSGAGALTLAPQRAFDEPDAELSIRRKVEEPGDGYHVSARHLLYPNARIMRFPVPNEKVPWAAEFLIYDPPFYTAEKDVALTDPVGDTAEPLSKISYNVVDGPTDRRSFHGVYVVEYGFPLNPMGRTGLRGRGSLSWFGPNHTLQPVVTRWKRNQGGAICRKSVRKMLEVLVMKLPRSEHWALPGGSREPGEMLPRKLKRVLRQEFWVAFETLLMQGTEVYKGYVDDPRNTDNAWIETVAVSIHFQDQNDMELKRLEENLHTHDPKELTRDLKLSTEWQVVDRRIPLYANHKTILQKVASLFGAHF

Turning to `CC#CCC(C)[C@H](O)/C=C/[C@@H]1[C@H]2C/C(=C/CCCC(=O)O)C[C@H]2C[C@H]1O` (stereo partly drawn) [Iloprost], in [1], the “increase in collagen synthesis” value is listed as “blocks” and the “induction of CTGF” value was “blocks”. For the same molecule, in [2], the “dermal CTGF levels” value is “marked decrease”.
Turning to `COC(=O)[C@@H](N)CCCNC(=N)N[N+](=O)[O-]` [Nw-nitro-l-arginine methyl ester], the “survival on exposure to >95% O2 compared with control rats” value in series [3] is “significantly fewer survived”.
Regarding `[N]=O` [NO, nitric oxide], in series [4], the “lung injury after intratracheal LPS” value is on record as “significantly improved”; the “pulmonary inflammation and cell apoptosis” value is listed as “down-regulated”. In addition, the “LPS-induced pulmonary early and late NF-κB activation” value in [5] is on record as “inhibited”. In addition, the “lung injury in polymicrobial sepsis” value in [6] is listed as “significantly attenuated”. Also, the “survival in high O2 exposure” value in series [7] is listed as “increase”. The lung collagen accumulation result in [8] was “increases”.
`Clc1ccccc1C(c1ccccc1)(c1ccccc1)n1ccnc1` [clotrimazole]: the PMN directionality result in series [9] is reported as “significantly inhibited”. The “Ca2+ influx” value in [10] is on record as “blocked”.
For `O=O` [O2, oxygen], the lung collagen accumulation entry in series [8] was “increases”.
Turning to `CC(=O)N[C@@H](CS)C(=O)O` [N-acetylcysteine], in [11], the “Ang II-stimulated DNA synthesis, cell migration, pro-collagen α1(I) mRNA expression, secretion of TGF-β1 and inflammatory cytokines” value is on record as “attenuated”.
In the case of `[HH]` [H2, hydrogen], in series [4], the “lung injury after intratracheal LPS” value was “significantly improved”; the “pulmonary inflammation and cell apoptosis” value is “down-regulated”. For the same molecule, in series [5], the “LPS-induced pulmonary early and late NF-κB activation” value is “inhibited”. In [6], the “lung injury in polymicrobial sepsis” value is on record as “significantly attenuated”. Also, the “brain injury associated with focal ischemia-reperfusion” value in series [12] was “markedly suppressed”.
Regarding `O=C(O)c1ccccc1Nc1cccc(C(F)(F)F)c1` [FA], the “Ca2+ influx” value in series [10] is given as “blocked”.
`c1ccc2c(c1)[I+]c1ccccc1-2` [diphenylene iodonium]: in [11], the “Ang II-stimulated DNA synthesis, cell migration, pro-collagen α1(I) mRNA expression, secretion of TGF-β1 and inflammatory cytokines” value was “attenuated”.
Take `Clc1ccc(COC(Cn2ccnc2)c2ccc(Cl)cc2Cl)cc1` (stereo not drawn) [Econazole]: the PMN directionality entry in series [9] is listed as “significantly inhibited”. The “Ca2+ influx” value in series [10] was “blocked”.
As to `CN(C)c1cccc(-c2c3c(=O)n(-c4ccccc4Cl)[nH]c3cc(=O)n2C)c1` [GKT137831], in series [13], the “hypoxia-induced pulmonary vascular cell proliferation” value is on record as “attenuates”.

These data come from patent publication US20170182088A1, “METHOD AND APPARATUS FOR ADMINISTERING NITRIC OXIDE WITH SUPPLEMENTAL DRUGS” (GENO LLC, priority 2015, published 2017).
